In article doi:10.1101/844506v1 (biorxiv, 2019):

Biological target: B8CYA8 (β-glucosidase from Halothermothrix orenii) (Halothermothrix orenii, UniProt B8CYA8)
Assay: melting temperature shift
Format: binding
Settings: 0.5 M glucose

Sequence of B8CYA8 (β-glucosidase from Halothermothrix orenii) (B8CYA8 1-451): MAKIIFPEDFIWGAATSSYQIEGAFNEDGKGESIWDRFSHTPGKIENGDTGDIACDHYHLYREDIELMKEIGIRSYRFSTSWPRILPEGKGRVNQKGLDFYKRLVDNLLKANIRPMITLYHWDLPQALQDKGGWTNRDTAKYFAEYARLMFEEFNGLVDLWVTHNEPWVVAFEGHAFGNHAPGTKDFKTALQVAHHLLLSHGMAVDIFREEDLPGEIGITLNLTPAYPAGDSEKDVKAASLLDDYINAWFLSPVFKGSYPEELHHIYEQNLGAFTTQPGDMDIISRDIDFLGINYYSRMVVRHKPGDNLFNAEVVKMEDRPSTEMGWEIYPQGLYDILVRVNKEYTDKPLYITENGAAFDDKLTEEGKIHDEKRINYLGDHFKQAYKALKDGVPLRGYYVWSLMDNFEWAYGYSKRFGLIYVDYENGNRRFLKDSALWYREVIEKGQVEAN

SMILES: OC[C@H]1OC(O)[C@H](O)[C@@H](O)[C@@H]1O (stereo partly shown) [glucose]
- increase in melting temperature: 4-5 °C
